In US20170114029A1, “TREATMENT OF CHAGAS DISEASE” (UNIVERSITY OF DUNDEE, priority 2014, published 2017):
Values after ≈ are worked out from the molar mass of the structure shown.

tested on: T. cruzi Tulahuen strain C2C4; test: Activity against T. cruzi (beta-galactosidase expressing parasites in L-6 cells); assay type: cell-based, Trypanosoma cruzi; conditions: Trypanosoma cruzi, TULAHUEN, L6, Benznidazole used as control, same assay; read-out: IC50 of control
Description: Activity against T. cruzi. Rat skeletal myoblasts (L-6 cells) were seeded in 96-well microtitre plates at 2000 cells/well in 100 μL RPMI 1640 medium with 10% FBS and 2 mM 1-glutamine. After 24 h the medium was removed and replaced by 100 μl per well containing 5000 trypomastigote forms of T. cruzi Tulahuen strain C2C4 containing the […] (Lac Z) gene (Buckner et al. 1996). After 48 h the medium was removed from the wells and replaced by 100 μl fresh medium with or without a serial drug dilution of eleven 3-fold dilution steps covering a range from 100 to 0.002 μg/ml. After 96 h of incubation the plates were inspected under an inverted microscope to assure growth of the controls and sterility. Then the substrate CPRG/Nonidet (50 μl) was added to all wells. A color reaction developed within 2-6 h and could be read photometrically at 540 nm. Data were analyzed with the graphic programme Softmax Pro (Molecular Devices), which calculated IC50 values by linear regression (Huber 1993) from the sigmoidal dose inhibition curves. Benznidazole is used as control (IC50 0.5±0.2 ug/ml). • Buckner, F. S., C. L. Verlinde, A. C. La Flamme, and W. C. Van Voorhis. 1996. Efficient technique for screening drugs for activity against Trypanosoma cruzi using parasites expressing beta-galactosidase, p. 2592-2597, vol. 40. • Huber, W. Koella, J. C. 1993. A comparison of the three methods of estimating EC50 in studies of drug resistance of malaria parasites. Acta Trop. 55, 257-261.

| SMILES | IC50 [µg/mL] |
| --- | --- |
| O=C(Cn1ccnc1[N+](=O)[O-])NCc1ccccc1 [Benznidazole, reference compound] | 0.5 ± 0.2 (≈ 1.92 µM) |

same assay, conditions: Trypanosoma cruzi, TULAHUEN, L6, in Rattus norvegicus, 96 h, read-out: Activity (IC50)

| SMILES | IC50 [µg/mL] |
| --- | --- |
| CC(=O)Nc1ccc2[nH]c(=O)n(Cc3cccc(C(F)(F)F)c3)c(=O)c2c1 [Example 43, N-(2,4-dioxo-3-(3-(trifluoromethyl)benzyl)-1,2,3,4-tetrahydroquinazolin-6-yl)acetamide] | 0.804 (≈ 2.13 µM) |

same assay, conditions: Trypanosoma cruzi, TULAHUEN, L6, in Rattus norvegicus, 96 h, trypomastigotes in rat skeletal myoblasts (L-6 cells), 96 h incubation, CPRG/Nonidet read at 540 nm; read-out: Activity (IC50)

| SMILES | IC50 [µg/mL] |
| --- | --- |
| Nc1ccc2[nH]c(=O)n(CCC3CCCCC3)c(=O)c2c1 [Example 9, 6-Amino-3-(2-cyclohexylethyl)quinazoline-2,4(1H,3H)-dione] | 0.339 (≈ 1.18 µM) |
| O=c1[nH]c2ccc(-c3cncnc3)cc2c(=O)n1CCC1CCCCC1 [Example 18, 3-(2-Cyclohexylethyl)-6-(pyrimidin-5-yl)quinazoline-2,4(1H,3H)-dione] | 4.93 (≈ 14.1 µM) |
| CC(=O)Nc1cnc2[nH]c(=O)n([C@H]3CC[C@H](C(C)(C)C)CC3)c(=O)c2c1 [Example 33, N-[3-(trans-4-tert-Butyl-cyclohexyl)-2,4-dioxo-1,2,3,4-tetrahydro-pyrido[2,3-d]pyrimidin-6-yl]-acetamide] | 0.196 (≈ 0.547 µM) |
| CC[C@H]1CC[C@H](n2c(=O)[nH]c3ccc(N)cc3c2=O)CC1 [24 (trans), 6-Amino-3-(trans-4-ethyl-cyclohexyl)-1H-quinazoline-2,4-dione] | 0.035 (≈ 0.122 µM) |
| CC(=O)Nc1ccc2[nH]c(=O)n([C@H]3CC[C@@H](C(C)C)CC3)c(=O)c2c1 [Example 47, N-(3-((1s,4s)-4-Isopropylcyclohexyl)-2,4-dioxo-1,2,3,4-tetrahydroquinazolin-6-yl)acetamide] | 0.087 (≈ 0.253 µM) |
| CC(C)C1CCC(n2c(=O)[nH]c3ccc(N)cc3c2=O)CC1 (racemic) [25 (rac), 6-Amino-3-(4-isopropylcyclohexyl)-1H-quinazoline-2,4-dione] | 0.028 (≈ 0.0929 µM) |
| CC(C)(C)[C@H]1CC[C@H](n2c(=O)[nH]c3ncc(N)cc3c2=O)CC1 [Example 26e, 6-Amino-3-(trans-4-tert-butyl-cyclohexyl)-1H-pyrido[2,3-d]pyrimidine-2,4-dione] | 0.209 (≈ 0.661 µM) |
| CC(=O)Nc1ccc2[nH]c(=O)n(CCC3=CCCCC3)c(=O)c2c1 [Example 1c, N-[3-(2-Cyclohex-1-enyl-ethyl)-2,4-dioxo-1,2,3,4-tetrahydro-quinazolin-6-yl]-acetamide] | 0.692 (≈ 2.11 µM) |
| CC(=O)Nc1ccc2[nH]c(=O)n(C3CCC(C)(C)CC3)c(=O)c2c1 [Example 52, N-(3-(4,4-dimethylcyclohexyl)-2,4-dioxo-1,2,3,4-tetrahydroquinazolin-6-yl)acetamide] | 0.058 (≈ 0.176 µM) |
| CC(=O)Nc1ccc2[nH]c(=O)n(CCC3CCCC3)c(=O)c2c1 [Example 42, N-(3-(2-cyclopentylethyl)-2,4-dioxo-1,2,3,4-tetrahydroquinazolin-6-yl)acetamide] | 0.713 (≈ 2.26 µM) |
| CC(C)(C)C1CCC(n2c(=O)[nH]c3ccc(-c4cccnc4)cc3c2=O)CC1 (stereo not shown) [Example 22, 3-(4-(tert-butyl)cyclohexyl)-6-(pyridin-3-yl)quinazoline-2,4(1H,3H)-dione] | 2.63 (≈ 6.97 µM) |
| O=C(Nc1ccc2[nH]c(=O)n(CCC3CCCCC3)c(=O)c2c1)c1ccccc1 [Example 14c, N-(3-(2-Cyclohexylethyl)-2,4-dioxo-1,2,3,4-tetrahydroquinazolin-6-yl)benzamide] | 5.88 (≈ 15 µM) |
| O=c1[nH]c2ccc(-c3ccncc3)cc2c(=O)n1CCC1CCCCC1 [Example 19, 3-(2-Cyclohexylethyl)-6-(pyridin-4-yl)quinazoline-2,4(1H,3H)-dione] | 0.605 (≈ 1.73 µM) |
| CC(=O)Nc1ccc2[nH]c(=O)n([C@H]3CC[C@H](C(C)(C)F)CC3)c(=O)c2c1 [Example 62, N-(3-((1r,4r)-4-(2-Fluoropropan-2-yl)cyclohexyl)-2,4-dioxo-1,2,3,4-tetrahydroquinazolin-6-yl)acetamide] | 0.933 (≈ 2.58 µM) |
| CC(=O)Nc1ccc2[nH]c(=O)n(CCCN3CCOCC3)c(=O)c2c1 [Example 40, N-(3-(3-Morpholinopropyl)-2,4-dioxo-1,2,3,4-tetrahydroquinazolin-6-yl)acetamide] | 55.3 (≈ 160 µM) |
| CC(=O)Nc1ccc2[nH]c(=O)n([C@H]3CC[C@H](C(C)(C)C)CC3)c(=O)c2c1 [Example 49, N-(3-((1r,4r)-4-(tert-butyl)cyclohexyl)-2,4-dioxo-1,2,3,4-tetrahydroquinazolin-6-yl)acetamide] | 0.008 (≈ 0.0224 µM) |
| CC(=O)Nc1ccc2[nH]c(=O)n(CCCC3CCCCC3)c(=O)c2c1 [Example 5, N-[3-(3-Cyclohexyl-propyl)-2,4-dioxo-1,2,3,4-tetrahydro-quinazolin-6-yl]-acetamide] | 0.163 (≈ 0.475 µM) |

| SMILES | IC50 [µg/mL] |
| --- | --- |
| CC[C@H]1CC[C@H](n2c(=O)[nH]c3ccc(NC(C)=O)cc3c2=O)CC1 [Example 56, N-(3-((1r,4r)-4-Ethylcyclohexyl)-2,4-dioxo-1,2,3,4-tetrahydroquinazolin-6-yl)acetamide] | 0.015 (≈ 0.0455 µM) |
| CC(=O)Nc1ccc2[nH]c(=O)n([C@H]3CC[C@H](C(F)(F)F)CC3)c(=O)c2c1 [Example 53, N-(2,4-dioxo-3-((1r,4r)-4-(trifluoromethyl)cyclohexyl)-1,2,3,4-tetrahydroquinazolin-6-yl)acetamide] | 0.13 (≈ 0.352 µM) |
| CC(=O)Nc1ccc2[nH]c(=O)n([C@H](C)C3CCCCC3)c(=O)c2c1 [Example 2, (R)—N-(3-(1-cyclohexylethyl)-2,4-dioxo-1,2,3,4-tetrahydroquinazolin-6-yl)acetamide] | 0.724 (≈ 2.2 µM) |
| CC(=O)Nc1cnc2[nH]c(=O)n(CCC3CCCCC3)c(=O)c2c1 [Example 39, N-(3-(2-cyclohexylethyl)-2,4-dioxo-1,2,3,4-tetrahydropyrido[2,3-d]pyrimidin-6-yl)acetamide] | 0.755 (≈ 2.29 µM) |
| CC(=O)Nc1cnc2[nH]c(=O)n([C@H]3CC[C@@H](C(C)(C)C)CC3)c(=O)c2c1 [Example 34, N-[3-(cis-4-tert-Butyl-cyclohexyl)-2,4-dioxo-1,2,3,4-tetrahydro-pyrido[2,3-d]pyrimidin-6-yl)-acetamide] | 0.36 (≈ 1 µM) |
| CC(C)(C)C1CCC(n2c(=O)[nH]c3ccc(N)cc3c2=O)CC1 (racemic) [23b (rac), 6-amino-3-(4-tert-butyl-cyclohexyl)-1H-quinazoline-2,4-dione] | 0.028 (≈ 0.0888 µM) |
| O=c1[nH]c2ccc(-c3cccnc3)cc2c(=O)n1CCC1CCCCC1 [Example 17, 3-(2-Cyclohexylethyl)-6-(pyridin-3-yl)quinazoline-2,4(1H,3H)-dione] | 0.655 (≈ 1.87 µM) |
| CC(C)(C)C(=O)Nc1ccc2[nH]c(=O)n(CCC3CCCCC3)c(=O)c2c1 [Example 15b, N-(3-(2-cyclohexylethyl)-2,4-dioxo-1,2,3,4-tetrahydroquinazolin-6-yl)pivalamide] | 2.64 (≈ 7.11 µM) |
| CC(=O)Nc1ccc2[nH]c(=O)n(CCCc3ccc(F)cc3)c(=O)c2c1 [Example 44, N-(3-(3-(4-fluorophenyl)propyl)-2,4-dioxo-1,2,3,4-tetrahydroquinazolin-6-yl)acetamide] | 0.943 (≈ 2.65 µM) |
| CCCCCCn1c(=O)[nH]c2ccc(NC(C)=O)cc2c1=O [Example 41, N-(3-hexyl-2,4-dioxo-1,2,3,4-tetrahydroquinazolin-6-yl)acetamide] | 0.881 (≈ 2.9 µM) |
| CC(=O)Nc1ccc2[nH]c(=O)n(C3CCC(C(C)(C)C)C3)c(=O)c2c1 (stereo not shown) [Example 60, N-(3-(3-(Tert-butyl)cyclopentyl)-2,4-dioxo-1,2,3,4-tetrahydroquinazolin-6-yl)acetamide] | 0.007 (≈ 0.0204 µM) |
| COCCn1c(=O)[nH]c2ccc(NC(C)=O)cc2c1=O [Example 6, N-(3-(2-methoxyethyl)-2,4-dioxo-1,2,3,4-tetrahydroquinazolin-6-yl)acetamide] | 9.62 (≈ 34.7 µM) |
| CCC1CCC(n2c(=O)[nH]c3ncc(NC(C)=O)cc3c2=O)CC1 (stereo not drawn) [Example 35, N-[3-(trans-4-ethyl-cyclohexyl)-2,4-dioxo-1,2,3,4-tetrahydro-pyrido[2,3-d]pyhmidin-6-yl]-acetamide] | 0.1 (≈ 0.303 µM) |
| CC[C@H]1CC[C@@H](n2c(=O)[nH]c3ccc(NC(C)=O)cc3c2=O)CC1 [Example 55, N-(3-((1s,4s)-4-Ethylcyclohexyl)-2,4-dioxo-1,2,3,4-tetrahydroquinazolin-6-yl)acetamide] | 0.3 (≈ 0.911 µM) |
| CC(C)(C)[C@H]1CC[C@@H](n2c(=O)[nH]c3ccc(N)cc3c2=O)CC1 [23b (cis), 6-amino-3-(cis-4-tert-butyl-cyclohexyl)-1H-quinazoline-2,4-dione] | 0.007 (≈ 0.0222 µM) |
| CCNc1ccc2c(c1)c(=O)n(CCC1CCCCC1)c(=O)n2CC [Example 12b, 3-(2-cyclohexylethyl)-1-ethyl-6-(ethylamino)quinazoline-2,4(1H,3H)-dione] | 7.7 (≈ 22.4 µM) |
| CC[C@H]1CC[C@@H](n2c(=O)[nH]c3ccc(N)cc3c2=O)CC1 [24 (cis), 6-Amino-3-(cis-4-ethyl-cyclohexyl)-1H-quinazoline-2,4-dione] | 0.096 (≈ 0.334 µM) |

same assay, conditions: trypomastigotes in rat skeletal myoblasts (L-6 cells), 96 h incubation, CPRG/Nonidet read at 540 nm

| SMILES | Activity (IC50) [µg/mL] |
| --- | --- |
| CCC1CCC(n2c(=O)[nH]c3ncc(NC(C)=O)cc3c2=O)CC1 (stereo not shown) [Example 36, N-(3-((1s,4s)-4-ethylcyclohexyl)-2,4-dioxo-1,2,3,4-tetrahydropyrido[2,3-d]pyrimidin-6-yl)acetamide] | 0.110 |
